Measurements: patent US12404249B2, “Heterocyclic derivatives and use thereof” (C&C RESEARCH LABORATORIES, priority 2018, dated 2025)

Key:
[1] = tested on: prostate cancer cell line (LNCap); assay: Cell growth inhibition assay (Celltiter Glo); assay type: cell-based; conditions: Homo sapiens, LNCap cells, 120 hours incubation
Description: Cancer cell inhibitory effects by the compounds of the Examples were evaluated as follows. The prostate cancer cell line (LNCap) used was cultured under the condition according to the vendor's recommendation. LNCap was dispensed into a 96-well plate at 10,000 cells/well. After incubation under the condition of 37° C. and 5% CO2 for 24 hours, the Example compounds of 50 mM DMSO stock were diluted to various concentrations and treated to the 96-well plate containing cells. After treatment of the Example compounds, LNCap cells were incubated in an incubator (37° C., 5% CO2) for 120 hours. After each incubation time, the 96-well plate was observed under a microscope to record the presence or absence of drug precipitation and specificities, and the 96-well plate was kept at room temperature for 30 minutes. Then, after addition of 20 μL of Celltiter Glo solution, the 96-well plate was well shaken for 30 minutes. The growth inhibitory activity was measured on microLUMA LB96P (BERTHOLD) instrument using Glo-vial protocol. As a negative control, a 96 well-plate in which culture medium was added but cells were not plated was used. As a positive control, a 96 well-plate in which cells were plated and 0.1% DMSO instead of drugs was added was used. The results of growth inhibitory effects of the Example compounds on prostate cancer cell line are represented in Table 2.

STAT3 = target: T1, STAT3 (Homo sapiens, UniProt P40763); assay: STAT3 activation inhibition assay (reporter gene assay, LNcaP stable cell line, IL-6 stimulated); assay type: cell-based; conditions: LNcaP stable cell line [plasmid STAT3-TA-luc], IL-6 10 ng/mL, 48 hours, luciferase activity; read-out: IC50 (μM) pSTAT3
T1 construct: endogenous in cells; host or cells: LNCaP (human prostate cancer) stably carrying pSTAT3-TA-luc reporter plasmid
T1 sequence (P40763 whole entry): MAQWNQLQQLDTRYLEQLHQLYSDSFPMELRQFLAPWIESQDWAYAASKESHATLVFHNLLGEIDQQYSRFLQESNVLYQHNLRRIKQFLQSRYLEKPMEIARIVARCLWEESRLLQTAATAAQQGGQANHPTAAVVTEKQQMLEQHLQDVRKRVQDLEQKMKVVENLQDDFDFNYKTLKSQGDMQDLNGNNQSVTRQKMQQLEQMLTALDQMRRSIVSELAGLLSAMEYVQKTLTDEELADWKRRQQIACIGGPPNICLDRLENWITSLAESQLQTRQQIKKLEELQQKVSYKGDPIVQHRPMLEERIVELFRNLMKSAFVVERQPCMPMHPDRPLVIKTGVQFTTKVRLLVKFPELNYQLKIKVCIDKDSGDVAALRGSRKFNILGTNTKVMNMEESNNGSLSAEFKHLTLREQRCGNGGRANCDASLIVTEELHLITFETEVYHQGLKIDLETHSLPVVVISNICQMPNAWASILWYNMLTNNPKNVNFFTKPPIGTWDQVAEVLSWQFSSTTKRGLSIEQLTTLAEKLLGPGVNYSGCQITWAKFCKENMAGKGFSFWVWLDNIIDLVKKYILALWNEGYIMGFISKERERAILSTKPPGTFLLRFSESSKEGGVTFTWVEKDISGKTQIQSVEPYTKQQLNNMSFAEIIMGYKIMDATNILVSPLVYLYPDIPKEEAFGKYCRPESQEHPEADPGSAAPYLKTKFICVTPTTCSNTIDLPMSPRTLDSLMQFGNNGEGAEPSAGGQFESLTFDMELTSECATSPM
Description: Cancer cell lines used for evaluating the compounds of the Examples were purchased from ATCC (American Type Culture Collection) or KCLB (Korean Cell Line Bank), and cultured according to the vendor's recommendation. The human prostate cancer cell line stably expressing the STAT3 promoter (LNcaP stable cell line [plasmid STAT3-TA-luc])—which was prepared to evaluate the inhibitory effect of the compounds of the Examples against dimerization of STAT3—was cultured in RPMI1640 (Cat no. 11875, Gibco), 10% fetal bovine serum (Cat no. SH30071.03, Hyclone) and 150 μg/mL G418 solution (Cat no. 04 727 894 001, Roche).
The reporter gene assay of LNcap stable cell line was carried out by the use of RPMI 1640 medium containing 3% DCC-FBS (without G-418). The cell line was dispensed into two (2) white 96-well plates at 30,000 cells/well/50 μL. The cell line was incubated for 24 hours under the condition of 37° C. and 5% CO2, and then the Example compounds of 50 mM DMSO stock were diluted to various concentrations and treated to two (2) white 96-well plates containing cells. Then, IL-6 was treated to a final concentration of 10 ng/mL. After the treatment of Example compounds and IL-6, the cells were cultured for 48 hours under the condition of 37° C. and 5% CO2. After 48 hours, the 96-well plates were observed under a microscope to record the presence or absence of drug precipitation and specificities, and the 96-well plates were kept at room temperature for 30 minutes. Then, in the case of the first 96-well plate, the culture medium on the plate was removed to measure the luciferase activity, and treated with passive lysis buffer at 20 µL/well and shaken for 30 minutes. The luciferase activity was measured on microLUMA LB96P (BERTHOLD) or Centro XS LB 960 (BERTHOLD) instrument using Luciferase assay system (Cat No. E1501, Promega Corporation). In the case of the second 96-well plate, 20 μL of Glo-mix solution was added to measure cytotoxicity by the compounds of the Examples, and the plate was well shaken for 10 minutes and analyzed on microLUMA LB96P (BERTHOLD) instrument using Glo-vial protocol. As a negative control, a 96 well-plate in which culture medium was added but cells were not plated was used. As a positive control, a 96 well-plate in which cells were plated and 0.1% DMSO and culture medium containing stimulation were added was used.
The results of evaluating the inhibitory effects of the compounds of the Examples against dimerization of STAT3 and STAT1 via STAT3 and STAT1 reporter gene assay are represented in Table 1.

IC50 [1] [µM]	IC50 (STAT3) [µM]	SMILES
3.5	2.6	O=[N+]([O-])c1ccc(CCNc2cc(Cl)nc3ccccc23)cc1 [Example 1, 2-chloro-N-(4-nitrophenethyl)quinolin-4-amine]
0.81	0.85	CS(=O)(=O)N(O)c1ccc(CCNc2cc(Cl)nc3ccccc23)cc1 [Example 2, N-(4-(2-((2-chloroquinolin-4-yl)amino)ethyl)phenyl)-N-hydroxymethanesulfonamide]
5.1	10.5	NS(=O)(=O)c1ccc(CCNc2cc(Cl)nc3ccccc23)cc1 [Example 3, 4-(2-((2-chloroquinolin-4-yl)amino)ethyl)benzenesulfonamide]
> 50	20.9	NS(=O)(=O)c1ccc(CCN(CCc2ccccc2)c2cc(Cl)nc3ccccc23)cc1 [Example 4, 4-(2-((2-chloroquinolin-4-yl)(phenethyl)amino)ethyl)benzenesulfonamide]
47.3	38.1	Cc1cc(NCCc2ccc([N+](=O)[O-])cc2)c2ccccc2n1 [Example 5, 2-methyl-N-(4-nitrophenethyl)quinolin-4-amine]
0.69	0.71	Nc1ccc(CCNc2cc(Cl)nc3ccccc23)cc1 [Example 6, N-(4-aminophenethyl)-2-chloroquinolin-4-amine]
0.078	0.038	CS(=O)(=O)Nc1ccc(CCNc2cc(Cl)nc3ccccc23)cc1 [Example 7, N-(4-(2-((2-chloroquinolin-4-yl)amino)ethyl)phenyl)methanesulfonamide]
16	7.8	CCc1cccc2c(NCCc3ccc([N+](=O)[O-])cc3)cc(Cl)nc12 [Example 8, 2-chloro-8-ethyl-N-(4-nitrophenethyl)quinolin-4-amine]
7.7	3	COc1ccc2nc(Cl)cc(NCCc3ccc([N+](=O)[O-])cc3)c2c1 [Example 9, 2-chloro-6-methoxy-N-(4-nitrophenethyl)quinolin-4-amine]
2.6	3.9	COc1cccc2c(NCCc3ccc([N+](=O)[O-])cc3)cc(Cl)nc12 [Example 10, 2-chloro-8-methoxy-N-(4-nitrophenethyl)quinolin-4-amine]
2.6	1.6	COc1ccc2nc(Cl)cc(NCCc3ccc(NS(C)(=O)=O)cc3)c2c1 [Example 11, N-(4-(2-((2-chloro-6-methoxyquinolin-4-yl)amino)ethyl)phenyl)methanesulfonamide]
9.3	5.8	O=[N+]([O-])c1ccc(CCNc2cc(Cl)nc3cc(OC(F)(F)F)ccc23)cc1 [Example 12, 2-chloro-N-(4-nitrophenethyl)-7-(trifluoromethoxy)quinolin-4-amine]
2.5	3.1	O=[N+]([O-])c1ccc(CCNc2cc(Cl)nc3cccc(OC(F)(F)F)c23)cc1 [Example 13, 2-chloro-N-(4-nitrophenethyl)-5-(trifluoromethoxy)quinolin-4-amine]
1.9	0.59	O=[N+]([O-])c1ccc(CCNc2cc(Cl)nc3ccc(F)cc23)cc1 [Example 14, 2-chloro-6-fluoro-N-(4-nitrophenethyl)quinolin-4-amine]
1.6	3.1	Cc1cccc2c(NCCc3ccc([N+](=O)[O-])cc3)cc(Cl)nc12 [Example 15, 2-chloro-8-methyl-N-(4-nitrophenethyl)quinolin-4-amine]
21.8	> 50	CCOC(=O)c1ccc2nc(Cl)cc(NCCc3ccc([N+](=O)[O-])cc3)c2c1 [Example 16, ethyl 2-chloro-4-((4-nitrophenethyl)amino)quinolin-6-carboxylate]
4.7	1.6	O=[N+]([O-])c1ccc(CCNc2ccnc3ccccc23)cc1 [Example 17, N-(4-nitrophenethyl)quinolin-4-amine]
0.48	0.21	O=[N+]([O-])c1ccc(CCNc2nc(Cl)nc3ccccc23)cc1 [Example 18, 2-chloro-N-(4-nitrophenethyl)quinazolin-4-amine]
0.74	0.75	O=Nc1ccc(CCNc2cc(Cl)nc3ccccc23)cc1 [Example 20, 2-chloro-N-(4-nitrosophenethyl)quinolin-4-amine]
2.4	2.3	CS(=O)(=O)Nc1ccc(CCNc2ccnc3ccc(F)cc23)cc1 [Example 21, N-(4-(2-((6-fluoroquinolin-4-yl)amino)ethyl)phenyl)methanesulfonamide]
0.074	0.1	CS(=O)(=O)Nc1ccc(CCNc2cc(Cl)nc3ccc(F)cc23)cc1 [Example 22, N-(4-(2-((2-chloro-6-fluoroquinolin-4-yl)amino)ethyl)phenyl)methanesulfonamide]
0.25	0.26	CS(=O)(=O)Nc1ccc(CCNc2nc(Cl)nc3ccccc23)cc1 [Example 23, N-(4-(2-((2-chloroquinazolin-4-yl)amino)ethyl)phenyl)methanesulfonamide]
6.2	4.1	CS(=O)(=O)Nc1ccc(CCNc2cc(Cl)nc3cc(OC(F)(F)F)ccc23)cc1 [Example 24, N-(4-(2-((2-chloro-7-(trifluoromethoxy)quinolin-4-yl)amino)ethyl)phenyl)methanesulfonamide]
9.6	1.9	CS(=O)(=O)Nc1ccc(CCNc2ccnc3cc(OC(F)(F)F)ccc23)cc1 [Example 25, N-(4-(2-((7-(trifluoromethoxy)quinolin-4-yl)amino)ethyl)phenyl)methanesulfonamide]
0.23	0.15	CS(=O)(=O)Nc1ccc(CCNc2cc(Cl)nc3cccc(OC(F)(F)F)c23)cc1 [Example 26, N-(4-(2-((2-chloro-5-(trifluoromethoxy)quinolin-4-yl)amino)ethyl)phenyl)methanesulfonamide]
0.14	0.14	CS(=O)(=O)Nc1ccc(CCNc2ccnc3cccc(OC(F)(F)F)c23)cc1 [Example 27, N-(4-(2-((5-(trifluoromethoxy)quinolin-4-yl)amino)ethyl)phenyl)methanesulfonamide]
44.1	32.3	O=[N+]([O-])c1ccc(CCNc2cc(Cl)nc3ccc(N4CCOCC4)cc23)cc1 [Example 28, 2-chloro-6-morpholino-N-(4-nitrophenethyl)quinolin-4-amine 2,2,2-trifluoroacetate]
2.5	0.64	O=[N+]([O-])c1ccc(CCNc2cc(Cl)nc3cccc(F)c23)cc1 [Example 29, 2-chloro-5-fluoro-N-(4-nitrophenethyl)quinolin-4-amine]
7	2.2	O=[N+]([O-])c1ccc(CCNc2cc(Cl)nc3cc(F)ccc23)cc1 [Example 30, 2-chloro-7-fluoro-N-(4-nitrophenethyl)quinolin-4-amine]
0.21	0.12	O=[N+]([O-])c1ccc(CCNc2cc(Cl)nc3c(F)cccc23)cc1 [Example 31, 2-chloro-8-fluoro-N-(4-nitrophenethyl)quinolin-4-amine]

SMILES	IC50 [1] [µM]	IC50 (STAT3) [µM]
O=[N+]([O-])c1ccc(CCNc2cc(Cl)nc3ccc(S(=O)(=O)NCCc4ccc([N+](=O)[O-])cc4)cc23)cc1 [Example 19, 2-chloro-N-(4-nitrophenethyl)-4-((4-nitrophenethyl)amino)quinolin-6-sulfonamide]	18.4	> 50
